# Assay results taken from patent publication US20040191334A1, “Use of transhinone derivates as cholinesterase inhibitors in treating related diseases” (priority 2003, published 2004).
# What was measured:
# [1] = target: T1, butrylcholinesterase (hBChE) (Homo sapiens, UniProt P06276); assay: Ellman assay with butrylcholinesterase (specificity); type: biochemical; conditions: hAChE run in parallel; FIGS. 4a and 4b
# T1 construct: purchased Sigma
# Excerpt: In order to test the specificity of cryptotanshinone and dihydrotanshinone I towards hAChE, butrylcholinesterase (hBChE) instead of hAChE was used in Ellman assay. hBChE is concentrated in […] and it is named as pseudoesterase as it has very homology as hAChE.
# Ellman assay was preformed as mentioned, except that hBChE (commercially obtained from Sigma.) was used. Ellman assay using hAChE was also preformed in parallel for comparison.
# [2] = tested on: mouse neuronal cell line N1E-115; assay: MTT cytotoxicity assay on N1E-115; type: cell-based; conditions: FIG. 5b
# Excerpt: (§1) MTT assay was used to check for the toxicity of the selected primary hAChE inhibitors. Since only metabolic active cell can cleave the tetrazolium salt MTT and form a formazen dye. The O.D. measure at 540 nm is directly proportional to the number of viable cell.
# Gram positive bacteria = conditions: broad range of Gram positive bacteria; cited from earlier work
# [3] = target: T2, Human acetylcholinesterase (hAChE) (Homo sapiens, UniProt P22303); assay: Ellman assay, human acetylcholinesterase inhibition; type: biochemical; conditions: for effect on AChE inhibition (in words): selected active components, FIG. 2 and 3
# T2 construct: purchased Sigma
# T2 sequence (P22303 32-614): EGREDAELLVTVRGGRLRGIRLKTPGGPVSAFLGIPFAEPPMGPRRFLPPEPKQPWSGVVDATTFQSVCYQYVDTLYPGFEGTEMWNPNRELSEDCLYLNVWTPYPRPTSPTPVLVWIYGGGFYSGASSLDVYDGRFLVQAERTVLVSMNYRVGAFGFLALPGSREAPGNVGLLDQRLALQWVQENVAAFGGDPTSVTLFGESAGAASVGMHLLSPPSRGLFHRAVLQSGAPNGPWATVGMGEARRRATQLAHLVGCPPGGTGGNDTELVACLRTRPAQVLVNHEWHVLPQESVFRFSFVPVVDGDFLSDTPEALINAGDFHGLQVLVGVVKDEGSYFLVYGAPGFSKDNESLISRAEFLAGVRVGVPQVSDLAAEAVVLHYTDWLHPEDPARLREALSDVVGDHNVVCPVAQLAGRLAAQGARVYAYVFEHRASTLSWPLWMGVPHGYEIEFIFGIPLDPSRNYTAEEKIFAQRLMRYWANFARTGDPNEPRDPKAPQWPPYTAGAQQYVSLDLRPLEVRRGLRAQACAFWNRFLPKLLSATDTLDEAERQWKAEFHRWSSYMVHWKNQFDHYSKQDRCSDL
# Protocol: The screening for modest cholinesterease inhibitors by the method of Ellman assay was used. Human acetylcholinesterase (hAChE) in buffer was added to the test chemicals/TCM extract followed by the addition of acetylthiocholine (ATCI) substrates and Ellman's reagent, (5′5-dithio-bis-(2-nitrobenzoate), DTNB). The AChE inhibitory activity was monitored by the release of thiocholine which was then reacted with DTNB to form a bright yellow product. The optical densities of the color product formed was spectrophotometrically determined.
# After 10 minutes, the optical densities were measured in a 96-well plate reader at 415 nm. Optical densities was inversely proportional to the inhibiting activity.
# Selected active components were dissolved in 50% DMSO. 100% DMSO was not recommended in this assay as it lowers the enzyme vitality.
# Ellman assay was performed on the selected active components, protocatechualdehyde (MW=138.12), cryptotanshinone (MW=296), salvianic acid B (MW=718) and dihydrotanshinone I (MW=278). 10-fold dilution was made with highest concentration at 40 μM. (FIG. 2)
# 10-fold dilution was made with the highest concentration at 80 μM. (FIG. 3)
# [4] = tested on: neuronal cell line-SHSY5Y; assay: MTT cytotoxicity assay on SHSY5Y; type: cell-based; conditions: FIG. 5a
# Excerpt: as §1
# [5] = tested on: interleukin-12 (IL-12) and interferon-gamma (IFN-gamma) production; conditions: compared with cryptotanshinone and tanshinone I; cited from earlier work
# T1 sequence (P06276 29-602): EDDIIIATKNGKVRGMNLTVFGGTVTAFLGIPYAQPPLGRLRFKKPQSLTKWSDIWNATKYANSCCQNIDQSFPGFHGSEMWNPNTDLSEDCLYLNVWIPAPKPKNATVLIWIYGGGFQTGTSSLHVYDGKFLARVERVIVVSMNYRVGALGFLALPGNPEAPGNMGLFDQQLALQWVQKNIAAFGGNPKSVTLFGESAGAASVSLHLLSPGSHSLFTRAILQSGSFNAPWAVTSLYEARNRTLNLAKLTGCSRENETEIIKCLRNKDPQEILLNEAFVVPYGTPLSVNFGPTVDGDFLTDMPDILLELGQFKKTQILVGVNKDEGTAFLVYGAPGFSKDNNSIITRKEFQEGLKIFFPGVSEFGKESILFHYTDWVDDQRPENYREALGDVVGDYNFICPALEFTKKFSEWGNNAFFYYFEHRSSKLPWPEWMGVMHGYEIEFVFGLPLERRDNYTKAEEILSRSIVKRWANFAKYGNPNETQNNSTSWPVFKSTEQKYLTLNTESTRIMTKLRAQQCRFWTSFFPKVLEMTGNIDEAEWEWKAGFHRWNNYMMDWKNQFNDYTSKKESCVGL
SMILES,selectivity for AChE versus BChE [1],antibacterial activity (Gram positive bacteria),IC50 [3],"MTT cytotoxicity ([2]; N1E-115, 1 μM)",MTT cytotoxicity ([4]; 1 μM),effect on AChE inhibition (in words) [3],further results
C[C@H]1COC2=C1C(=O)C(=O)c1c2ccc2c1CCCC2(C)C [cryptotanshinone],higher selectivity for AChE than BChE,antibacterial activity,5 to 8 µM,,,,"MTT cytotoxicity ([2]; N1E-115, 1-50 μM): No significant cytotoxicity; MTT cytotoxicity ([4]; 1-50 μM): No significant cytotoxicity"
Cc1cccc2c3c(ccc12)C1=C(C(=O)C3=O)[C@@H](C)CO1 [dihydrotanshinone I],higher selectivity for AChE than BChE,antibacterial activity,0.5 to 0.8 µM,No significant cytotoxicity,No significant cytotoxicity,,inhibition of IL-12 and IFN-gamma production [5]: effectively inhibit
"O=Cc1ccc(O)c(O)c1 [protocatechualdehyde, reference compound]",,,,,,little effect,
"O=C(C=Cc1ccc(O)c2c1C(C(=O)OC(Cc1ccc(O)c(O)c1)C(=O)O)C(c1ccc(O)c(O)c1)O2)OC(Cc1ccc(O)c(O)c1)C(=O)O (centres unmarked) [salvianic acid B, reference compound]",,,,,,little effect,
"Cc1coc2c1C(=O)C(=O)c1c-2ccc2c1CCCC2(C)C [tanshinone IIA, reference compound]",,,,,,little effect,
Cc1coc2c1C(=O)C(=O)c1c-2ccc2c(C)cccc12 [tanshinone I],,,~70 µM,No significant cytotoxicity,No significant cytotoxicity,,
